Data set [1] deals with Insulin receptor (Homo sapiens) (UniProt P06213). Nature of the data set: Inhibition of IRK (unknown origin) at 100 nM by [gamma-33P]ATP-based radiometric or Alphascreen assay relative to control. A general note: Bead proximity is the source of the signal in Alpha formats.
In a further data set the target is MDR1 (ABCB1, P-gp) (Homo sapiens, UniProt P08183). In words: Substrate activity at human MDR1 expressed in pig LLC-PK1 cells assessed as efflux ratio of apparent permeability across basolateral to apical over apical to basolateral side at 10 uM after 2 hrs by LC/MS/MS analysis. The data set is classed as ADME, cell-based.
The species entered for the next data set is Homo sapiens. In words: Selectivity ratio of IC50 for human FAK kinase domain (411 to 686 residues) expressed in baculovirus expression system to IC50 for human ALK kinase domain (1058 to 1620 residues) expressed in baculovirus expression system.
The target in data set [2] is Cyclin-dependent kinase 2 (Homo sapiens) (UniProt P24941). Nature of the data set: Inhibition of CDK2 (unknown origin) at 100 nM by [gamma-33P]ATP-based radiometric or Alphascreen assay relative to control.
In data set [3] the target is Serine/threonine-protein kinase PLK1 (Homo sapiens) (UniProt P53350). In words: Inhibition of N-terminal FLAG-tagged PLK1 (unknown origin) expressed in baculovirus expression system at 100 nM using alpha-casein as substrate preincubated for 5 mins followed by [gamma-33P]ATP addition and measured after 40 mins by topcount scintillation counting method relative to control.

Data set [4] has as its target Glycogen synthase kinase-3 beta (Homo sapiens) (UniProt P49841). Nature of the data set: Inhibition of N-terminal FLAG-tagged GSK3beta (unknown origin) expressed in baculovirus expression system at 100 nM using pGS peptide as substrate preincubated for 5 mins followed by [gamma-33P]ATP addition and measured after 30 mins by topcount scintillation counting method relative to control.

The target of data set [5] is MAP kinase-activated protein kinase 2 (Homo sapiens) (UniProt P49137). Nature of the data set: Inhibition of MAPKAPK2 (unknown origin) at 100 nM by [gamma-33P]ATP-based radiometric or Alphascreen assay relative to control.
The target of data set [6] is Protein kinase C theta type (Homo sapiens) (UniProt Q04759). In words: Inhibition of N-terminal FLAG-tagged PKCtheta (unknown origin) expressed in baculovirus expression system at 100 nM using pGS peptide as substrate preincubated for 5 mins followed by [gamma-33P]ATP addition and measured after 30 mins by topcount scintillation counting method relative to control.
The target in data set [7] is Mitogen-activated protein kinase kinase kinase 5 (Homo sapiens) (UniProt Q99683). In words: Inhibition of N-terminal FLAG-tagged ASK1 (unknown origin) expressed in baculovirus expression system at 100 nM using myelin basic protein as substrate preincubated for 5 mins followed by [gamma-33P]ATP addition and measured after 60 mins by topcount scintillation counting method relative to control.

Data set [8] addresses Epidermal growth factor receptor (Homo sapiens) (UniProt P00533). Nature of the data set: Inhibition of human N-terminal DYKDDDD-tagged EGFR cytoplasmic domain (669 to 1210 residues) expressed in baculovirus expression system at 100 nM using poly-Glu-Tyr(4:1) as substrate preincubated for 5 mins followed by [gamma-33P]ATP addition and measured after 10 mins by topcount scintillation counting method relative to control.

In data set [9] the target is Dual specificity mitogen-activated protein kinase kinase 1 (Homo sapiens) (UniProt Q02750). In words: Inhibition of N-terminal GST-fused MEK1 (unknown origin) expressed in FreeStyle 293 cells at 100 nM using GST-ERK1(K71A) as substrate preincubated for 5 mins followed by [gamma-33P]ATP addition and measured after 20 mins by topcount scintillation counting method relative to control.

Data set [10] has as its target Cell division cycle 7-related protein kinase (Homo sapiens) (UniProt O00311). In words: Inhibition of CDC7 (unknown origin) at 100 nM by [gamma-33P]ATP-based radiometric or Alphascreen assay relative to control.
Data set [11] concerns the target Ephrin type-A receptor 5 (Homo sapiens) (UniProt P54756). Nature of the data set: Inhibition of EPHA5 (unknown origin) at 100 nM by [gamma-33P]ATP-based radiometric or Alphascreen assay relative to control.
The target of data set [12] is Rho-associated protein kinase 1 (Homo sapiens) (UniProt Q13464). In words: Inhibition of ROCK1 (unknown origin) at 100 nM by [gamma-33P]ATP-based radiometric or Alphascreen assay relative to control.
Data set [13] in a line: Fraction unbound in ICR mouse brain at 1 umol/L measured for 16 to 20 hrs by equilibrium dialysis based LC-MS/MS analysis. The data set is classed as ADME, tissue-based. To be noted: 1 µM.
A short description of data set [14]: Drug level in Jcl-ICR mouse plasma at 100 mg/kg, ip measured at 2 hr by LC/MS/MS analysis. The data set is classed as ADME, organism-based.
Data set [15] is described as follows: Drug level in Jcl-ICR mouse brain at 100 mg/kg, ip measured at 1 hr by LC/MS/MS analysis. The data set is classed as ADME, organism-based. To be noted: read-out: Drug uptake.
Data set [16] can be described thus: Brain to plasma partition coefficient, Kp of the compound in Jcl-ICR mouse at 100 mg/kg, ip measured at 2 hrs by LC/MS/MS analysis. The data set is classed as ADME, organism-based.

Chain of Dual specificity mitogen-activated protein kinase kinase 1 (Homo sapiens) (Q02750 whole entry, the tested form may be a part): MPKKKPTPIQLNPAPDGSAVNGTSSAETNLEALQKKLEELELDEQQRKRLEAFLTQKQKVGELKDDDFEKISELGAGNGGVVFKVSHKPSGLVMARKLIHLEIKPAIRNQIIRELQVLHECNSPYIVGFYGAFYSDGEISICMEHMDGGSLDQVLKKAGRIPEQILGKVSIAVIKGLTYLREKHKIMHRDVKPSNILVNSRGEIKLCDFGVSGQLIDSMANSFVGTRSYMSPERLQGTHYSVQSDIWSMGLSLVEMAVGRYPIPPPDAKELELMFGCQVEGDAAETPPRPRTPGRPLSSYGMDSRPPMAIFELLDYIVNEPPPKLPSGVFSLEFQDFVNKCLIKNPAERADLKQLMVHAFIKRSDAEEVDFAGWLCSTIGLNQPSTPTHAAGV
Chain of Mitogen-activated protein kinase kinase kinase 5 (Homo sapiens) (Q99683 whole entry): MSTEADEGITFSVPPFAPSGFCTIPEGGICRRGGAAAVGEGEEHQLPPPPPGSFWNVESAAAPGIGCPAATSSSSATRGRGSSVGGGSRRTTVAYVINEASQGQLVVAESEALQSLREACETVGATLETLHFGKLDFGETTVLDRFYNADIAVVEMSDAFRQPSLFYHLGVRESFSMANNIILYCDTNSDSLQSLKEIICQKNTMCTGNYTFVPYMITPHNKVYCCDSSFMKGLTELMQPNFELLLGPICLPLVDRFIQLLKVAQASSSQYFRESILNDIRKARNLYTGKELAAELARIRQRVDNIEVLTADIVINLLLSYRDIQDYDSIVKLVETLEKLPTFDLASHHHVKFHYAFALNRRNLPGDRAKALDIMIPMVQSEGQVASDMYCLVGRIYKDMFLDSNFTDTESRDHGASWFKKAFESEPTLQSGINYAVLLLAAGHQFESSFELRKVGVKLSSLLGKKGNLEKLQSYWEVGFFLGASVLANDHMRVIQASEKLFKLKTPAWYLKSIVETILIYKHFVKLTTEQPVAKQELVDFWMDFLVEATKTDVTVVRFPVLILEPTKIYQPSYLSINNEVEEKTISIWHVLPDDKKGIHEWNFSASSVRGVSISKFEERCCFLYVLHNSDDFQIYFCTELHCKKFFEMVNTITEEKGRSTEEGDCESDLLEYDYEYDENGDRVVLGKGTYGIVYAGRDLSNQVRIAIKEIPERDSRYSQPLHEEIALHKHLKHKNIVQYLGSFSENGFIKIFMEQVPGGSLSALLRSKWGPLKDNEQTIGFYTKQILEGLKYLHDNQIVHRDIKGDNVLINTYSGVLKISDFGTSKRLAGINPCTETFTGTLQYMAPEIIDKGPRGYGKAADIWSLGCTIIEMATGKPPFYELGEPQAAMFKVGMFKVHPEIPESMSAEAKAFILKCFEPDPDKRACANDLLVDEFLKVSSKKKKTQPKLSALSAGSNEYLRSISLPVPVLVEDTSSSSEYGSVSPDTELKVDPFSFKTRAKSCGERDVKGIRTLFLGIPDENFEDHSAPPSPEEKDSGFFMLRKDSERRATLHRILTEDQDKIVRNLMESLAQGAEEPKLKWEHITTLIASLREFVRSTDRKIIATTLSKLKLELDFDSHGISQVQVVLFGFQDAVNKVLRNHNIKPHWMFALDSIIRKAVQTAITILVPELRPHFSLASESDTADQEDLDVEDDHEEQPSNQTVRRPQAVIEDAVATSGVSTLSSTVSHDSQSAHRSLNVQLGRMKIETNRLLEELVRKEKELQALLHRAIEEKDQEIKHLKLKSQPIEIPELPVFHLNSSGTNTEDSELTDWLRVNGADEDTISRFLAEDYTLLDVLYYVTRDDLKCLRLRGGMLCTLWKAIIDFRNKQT
Chain of Insulin receptor (Homo sapiens) (P06213 28-758 limits assumed): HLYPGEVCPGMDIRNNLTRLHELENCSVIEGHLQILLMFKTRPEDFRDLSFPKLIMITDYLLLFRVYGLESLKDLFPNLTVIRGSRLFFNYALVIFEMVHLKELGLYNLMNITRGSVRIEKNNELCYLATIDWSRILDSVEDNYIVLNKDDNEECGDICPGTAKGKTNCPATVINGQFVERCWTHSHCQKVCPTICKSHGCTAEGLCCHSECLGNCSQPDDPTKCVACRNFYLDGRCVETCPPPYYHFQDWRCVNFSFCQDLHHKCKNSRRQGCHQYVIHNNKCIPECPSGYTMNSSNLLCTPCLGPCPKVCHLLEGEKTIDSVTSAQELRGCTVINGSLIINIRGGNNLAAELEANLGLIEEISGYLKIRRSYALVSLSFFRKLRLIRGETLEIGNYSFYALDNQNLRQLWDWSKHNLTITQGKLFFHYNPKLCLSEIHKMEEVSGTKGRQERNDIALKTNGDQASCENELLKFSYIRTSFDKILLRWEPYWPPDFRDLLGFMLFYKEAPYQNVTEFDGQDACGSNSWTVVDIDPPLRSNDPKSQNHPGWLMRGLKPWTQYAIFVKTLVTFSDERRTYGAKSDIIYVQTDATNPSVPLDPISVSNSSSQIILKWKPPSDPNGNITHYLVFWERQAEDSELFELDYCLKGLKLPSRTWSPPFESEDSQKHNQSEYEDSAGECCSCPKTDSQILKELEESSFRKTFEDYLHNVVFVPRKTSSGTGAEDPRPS
Chain of Insulin receptor (Homo sapiens) (P06213 763-1382 limits assumed): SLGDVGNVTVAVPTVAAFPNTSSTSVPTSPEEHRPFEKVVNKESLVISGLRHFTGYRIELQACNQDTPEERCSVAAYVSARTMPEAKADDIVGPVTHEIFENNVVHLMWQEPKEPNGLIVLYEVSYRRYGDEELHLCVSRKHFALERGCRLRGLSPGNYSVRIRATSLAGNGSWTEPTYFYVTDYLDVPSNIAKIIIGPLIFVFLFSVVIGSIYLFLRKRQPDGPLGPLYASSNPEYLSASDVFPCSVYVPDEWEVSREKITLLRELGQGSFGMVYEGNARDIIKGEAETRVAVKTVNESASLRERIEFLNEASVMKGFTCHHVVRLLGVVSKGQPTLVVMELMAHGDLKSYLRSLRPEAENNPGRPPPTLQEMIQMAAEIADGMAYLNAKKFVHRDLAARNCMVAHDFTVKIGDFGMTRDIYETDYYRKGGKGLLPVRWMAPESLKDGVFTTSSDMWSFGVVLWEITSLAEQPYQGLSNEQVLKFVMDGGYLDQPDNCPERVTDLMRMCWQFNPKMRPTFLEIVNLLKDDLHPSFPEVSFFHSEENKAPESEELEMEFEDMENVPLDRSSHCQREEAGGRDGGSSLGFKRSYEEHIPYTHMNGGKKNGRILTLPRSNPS
Chain of Rho-associated protein kinase 1 (Homo sapiens) (Q13464 2-1354 limits assumed): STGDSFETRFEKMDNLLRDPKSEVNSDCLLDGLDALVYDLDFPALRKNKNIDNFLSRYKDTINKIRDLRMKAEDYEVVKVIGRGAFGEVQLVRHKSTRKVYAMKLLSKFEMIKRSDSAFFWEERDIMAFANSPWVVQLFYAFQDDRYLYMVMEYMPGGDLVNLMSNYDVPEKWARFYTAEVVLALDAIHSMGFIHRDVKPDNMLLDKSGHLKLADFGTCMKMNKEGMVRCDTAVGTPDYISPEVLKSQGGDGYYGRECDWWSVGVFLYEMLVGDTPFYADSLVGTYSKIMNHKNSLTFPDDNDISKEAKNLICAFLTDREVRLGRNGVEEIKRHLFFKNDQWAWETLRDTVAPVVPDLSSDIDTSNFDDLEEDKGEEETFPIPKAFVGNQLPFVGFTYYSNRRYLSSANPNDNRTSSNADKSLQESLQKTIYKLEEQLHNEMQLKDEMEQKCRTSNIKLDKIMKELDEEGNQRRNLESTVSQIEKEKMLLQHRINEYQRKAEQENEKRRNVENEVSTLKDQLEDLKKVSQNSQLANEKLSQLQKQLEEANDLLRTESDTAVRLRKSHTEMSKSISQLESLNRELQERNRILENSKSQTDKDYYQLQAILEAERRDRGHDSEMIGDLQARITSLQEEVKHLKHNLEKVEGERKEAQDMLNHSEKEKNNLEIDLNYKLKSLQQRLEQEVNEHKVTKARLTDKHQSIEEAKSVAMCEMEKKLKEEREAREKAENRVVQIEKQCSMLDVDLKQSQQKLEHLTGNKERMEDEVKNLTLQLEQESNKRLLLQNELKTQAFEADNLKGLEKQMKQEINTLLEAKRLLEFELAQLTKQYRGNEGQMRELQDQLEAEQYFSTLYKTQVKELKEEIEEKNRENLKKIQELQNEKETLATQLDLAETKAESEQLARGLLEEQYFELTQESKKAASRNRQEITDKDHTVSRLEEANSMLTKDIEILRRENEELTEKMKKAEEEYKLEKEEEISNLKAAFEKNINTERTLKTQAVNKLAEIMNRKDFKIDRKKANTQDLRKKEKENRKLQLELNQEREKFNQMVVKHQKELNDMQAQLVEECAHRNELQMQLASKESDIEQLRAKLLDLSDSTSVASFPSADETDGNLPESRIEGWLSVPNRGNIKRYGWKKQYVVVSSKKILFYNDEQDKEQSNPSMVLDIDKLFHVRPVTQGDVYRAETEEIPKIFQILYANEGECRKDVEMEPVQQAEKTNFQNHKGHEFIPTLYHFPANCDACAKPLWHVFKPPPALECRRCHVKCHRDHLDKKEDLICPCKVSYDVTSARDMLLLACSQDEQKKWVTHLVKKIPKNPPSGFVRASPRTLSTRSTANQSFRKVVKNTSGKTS
Chain of Cell division cycle 7-related protein kinase (Homo sapiens) (O00311 whole entry, looked up): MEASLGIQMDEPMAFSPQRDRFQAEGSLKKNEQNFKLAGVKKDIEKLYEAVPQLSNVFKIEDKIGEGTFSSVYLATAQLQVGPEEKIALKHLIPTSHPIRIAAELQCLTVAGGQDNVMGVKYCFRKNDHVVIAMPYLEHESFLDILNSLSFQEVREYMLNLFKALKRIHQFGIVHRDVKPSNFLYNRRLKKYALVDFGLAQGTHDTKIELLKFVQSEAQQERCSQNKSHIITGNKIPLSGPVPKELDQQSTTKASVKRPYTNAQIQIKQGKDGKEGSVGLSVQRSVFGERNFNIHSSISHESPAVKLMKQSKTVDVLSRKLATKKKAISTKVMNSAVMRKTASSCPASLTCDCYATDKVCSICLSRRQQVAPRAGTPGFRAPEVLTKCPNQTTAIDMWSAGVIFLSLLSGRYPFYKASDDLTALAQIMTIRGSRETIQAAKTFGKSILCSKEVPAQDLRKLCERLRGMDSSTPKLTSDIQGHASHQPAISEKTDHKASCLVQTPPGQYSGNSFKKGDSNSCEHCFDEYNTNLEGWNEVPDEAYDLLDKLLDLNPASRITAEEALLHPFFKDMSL

One may read the inhibition as the change of the read-out against control, counted positive when it falls. The term efflux ratio denotes the permeability from basolateral to apical divided by that in the opposite direction, in the common usage. One may read the Kp as tissue or fluid exposure divided by exposure in the circulation. Take `Cc1cc(-n2cc(C(=O)N3CCO[C@@H](C)C3)c3ccc(O[C@@H](C)c4ccc(F)cn4)nc32)n[nH]1`: the inhibition in data set [1] amounted to 2%; in [2], 5%; in [3] it was 5%; in data set [4], 3%; in data set [5] it was 3%; in data set [6], 2%. For the same compound, the inhibition is -1% in data set [7]; -1% in data set [8]; -1% in [9]; -2% in data set [10]; -2% in [11]; -5% in data set [12]. In addition, the efflux ratio at 2 h, 10 µM on MDR1 (ABCB1, P-gp) was 1. Further, the Ratio IC50 in the data set filed under Homo sapiens is 10. The compound also came in with a Fu in [13] of 0.017%. Also, the concentration at 2 h in [14] stood at 11600 ng/mL. Also, the concentration at 1 h in data set [15] is 33400 ng/mL. In data set [16], this compound registered a Kp at 2 h of 0.515.

For the origin of these results see ChEMBL document CHEMBL4396868, “Discovery of Potent, Selective, and Brain-Penetrant 1 H-Pyrazol-5-yl-1 H-pyrrolo[2,3- b]pyridines as Anaplastic Lymphoma Kinase (ALK) Inhibitors” (J Med Chem, 2019).
